From patent US20230240290A1, “USE OF (Z)-3-HEXENYL ESTERS AND METHOD FOR PROTECTING PLANTS AGAINST PESTS” (UNIVERSITAT POLITÈCNICA DE VALÈNCIA, priority 2020, published 2023)

Experiments:
jasmonic acid pathway = conditions: corn exposed to the volatile; Engelberth et al. 2004; cited from earlier work
[1] = test system: PR1 (marker gene for the salicylic acid signaling pathway); assay: Transcriptional response of defense gene PR1 in tomato plants exposed to volatiles (laboratory); format: in vivo, Solanum lycopersicum cv. Moneymaker; conditions: intact tomato plants exposed 24 h; filter paper, 1:10,000 ester:methanol; n=8
Method: (§1) Moneymaker tomato plants were used. Two weeks after seed germination, the seedlings were individually transplanted into pots (8×8×8 cm). The plants were kept at 25±2° C., with a constant relative humidity of 65%±5% and a 14:10 h (light:dark) photoperiod. Tomato plants that had not received any pesticide treatment at four weeks of age (about 20 cm tall) were used. All volatiles used were obtained from Sigma-Aldrich (St. Louis, Mo., USA). Each volatile was exposed by using a 2×2 cm piece of filter paper on which 10 μl of a solution containing the corresponding volatile at a concentration of 1:10,000 [(Z)-3-hexenyl ester:methanol] was impregnated as an emitting source of the corresponding volatile (Pérez-Hedo, M. et al. Biocontrol, 63: 203-213 (2018)).
(§2) To activate a plant, two pieces of filter paper impregnated with the volatile were placed at the bottom of a 30×30×30 cm plastic cage (BugDorm-1 Insect Tents; MegaView Science Co., Ltd, Taichung, Taiwan) into which the plant was introduced. A control treatment was carried out in which the two pieces of filter paper were impregnated with 10 μl of methanol. Eight repetitions per treatment were performed. The plants of the treatments were kept exposed to the volatile without disturbing for 24 hours in separate and isolated climatic chambers to avoid any interference from the volatiles and were kept at 25±2° C., 65±10% RH, and a 14:10 h (L:D) photoperiod. […]
(§3) The methodology followed for extracting and quantifying gene expression was described by Pérez-Hedo et al. Journal of Pest Science 3: 543-554 (2015). The primers used were forward primer: 5′-[…]-3′ (SEQ ID NO: 1) and reverse primer: 5′-[…]-3′ (SEQ ID NO: 2) for the quantification of PR1, forward primer: 5′-[…]-3′ (SEQ ID NO: 3) and reverse primer: 5′-[…]-3′ (SEQ ID NO: 4) for SI-PI-I, and forward primer: 5′-[…]-3′ (SEQ ID NO: 5) and reverse primer: 5′-[…]-3′ (SEQ ID NO: 6) for the SI-PI-II gene. […]

[2] = test system: SI-PI-I (marker for plant proteinase inhibitors); assay: Transcriptional response of SI-PI-I in tomato plants exposed to volatiles (laboratory); format: in vivo, Solanum lycopersicum cv. Moneymaker; conditions: intact tomato plants exposed 24 h; filter paper, 1:10,000 ester:methanol; n=8
Method: as §1, §2, §3

[3] = test system: SI-PI-II (marker for plant proteinase inhibitors); assay: Transcriptional response of SI-PI-II in tomato plants exposed to volatiles (laboratory); format: in vivo, Solanum lycopersicum cv. Moneymaker; conditions: intact tomato plants exposed 24 h; filter paper, 1:10,000 ester:methanol; n=8
Method: as §1, §2, §3

Encarsia formosa = conditions: Pérez-Hedo et al. Biocontrol 2018; cited from earlier work
Bemisia tabaci = conditions: Pérez-Hedo et al. Biocontrol 2018; cited from earlier work
T. absoluta = conditions: Pérez-Hedo et al. Biocontrol 2018; cited from earlier work

Row | Transcriptional response of SI-PI-I compared to the control [2] | Transcriptional response of SI-PI-II compared to the control [3] | SMILES | Jasmonic acid pathway expression (jasmonic acid pathway) | Transcriptional response of PR1 compared to the control [1] | other results
1 |  |  | CC/C=C\CCO [(Z)-3-hexen-1-ol] | overexpress |  | 
2 |  |  | CC/C=C\CC=O [(Z)-3-hexenal] | overexpress |  | 
3 | significantly overexpressed | significantly overexpressed | CC/C=C\CCOC(C)=O [(Z)-3-hexenyl acetate] | overexpress | significantly overexpressed | 
4 | significantly overexpressed | significantly overexpressed | CC/C=C\CCOC(=O)CCC [(Z)-3-hexenyl butanoate] |  | significantly overexpressed | 
5 |  |  | COC(=O)c1ccccc1O [methyl salicylate] |  |  | Effect of the volatile on E. formosa (Encarsia formosa): attractive; Effect of the volatile on B. tabaci (Bemisia tabaci): repellent; Effect of the volatile on T. absoluta (T. absoluta): no effect
